Test results published in ChEMBL document CHEMBL5523701, “Structure-based discovery of small molecule inhibitors of FKBP51-Hsp90 protein-protein interaction” (Eur J Med Chem, 2024).

Legend:
[1] = target: T1, Peptidyl-prolyl cis-trans isomerase FKBP5 (Homo sapiens, UniProt Q13451); test: Binding affinity to GST-tagged human FKBP51 expressed in Escherichia coli BL21 (DE3) immobilized in CM7 sensor chip assessed as equilibrium dissociation constant by SPR analysis
T1 sequence (Q13451 whole entry): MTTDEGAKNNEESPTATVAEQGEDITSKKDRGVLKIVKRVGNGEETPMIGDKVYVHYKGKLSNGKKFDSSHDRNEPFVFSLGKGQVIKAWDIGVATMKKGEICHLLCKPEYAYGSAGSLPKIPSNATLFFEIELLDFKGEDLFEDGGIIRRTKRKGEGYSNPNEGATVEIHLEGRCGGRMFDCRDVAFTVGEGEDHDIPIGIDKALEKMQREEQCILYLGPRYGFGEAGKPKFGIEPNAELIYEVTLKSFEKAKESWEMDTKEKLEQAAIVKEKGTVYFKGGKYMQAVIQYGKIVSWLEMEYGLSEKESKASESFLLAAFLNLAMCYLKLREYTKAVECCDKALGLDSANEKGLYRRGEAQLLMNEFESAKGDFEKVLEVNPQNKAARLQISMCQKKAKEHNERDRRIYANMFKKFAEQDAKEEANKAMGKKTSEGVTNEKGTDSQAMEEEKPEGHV

[2] = target: T2, Aryl-hydrocarbon-interacting protein-like 1 (Homo sapiens, UniProt Q9NZN9); test: Inhibition of GST-tagged human AIPL1 expressed in Escherichia coli BL21 (DE3) using NH2-EDASRMEEVD-COOH peptide as substrate preincubated for 15 mins followed by substrate addition measured after 15 mins by Alpha Screen assay
T2 sequence (Q9NZN9 whole entry): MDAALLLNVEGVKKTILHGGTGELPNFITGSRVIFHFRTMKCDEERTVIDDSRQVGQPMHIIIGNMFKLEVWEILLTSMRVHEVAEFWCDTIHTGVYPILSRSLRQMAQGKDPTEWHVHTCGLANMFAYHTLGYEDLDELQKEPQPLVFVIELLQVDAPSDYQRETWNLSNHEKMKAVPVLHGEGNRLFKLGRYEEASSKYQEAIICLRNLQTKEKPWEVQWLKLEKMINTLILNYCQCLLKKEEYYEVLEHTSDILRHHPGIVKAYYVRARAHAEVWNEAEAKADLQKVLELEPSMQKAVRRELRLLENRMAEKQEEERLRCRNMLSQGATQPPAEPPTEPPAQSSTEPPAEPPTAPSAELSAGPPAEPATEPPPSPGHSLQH

[3] = target: Peptidyl-prolyl cis-trans isomerase D (Homo sapiens, UniProt Q08752); test: Inhibition of GST-tagged human CYP40 expressed in Escherichia coli BL21 (DE3) using NH2-EDASRMEEVD-COOH peptide as substrate preincubated for 15 mins followed by substrate addition measured after 15 mins by Alpha Screen assay
Chain of Peptidyl-prolyl cis-trans isomerase D (Q08752 whole entry): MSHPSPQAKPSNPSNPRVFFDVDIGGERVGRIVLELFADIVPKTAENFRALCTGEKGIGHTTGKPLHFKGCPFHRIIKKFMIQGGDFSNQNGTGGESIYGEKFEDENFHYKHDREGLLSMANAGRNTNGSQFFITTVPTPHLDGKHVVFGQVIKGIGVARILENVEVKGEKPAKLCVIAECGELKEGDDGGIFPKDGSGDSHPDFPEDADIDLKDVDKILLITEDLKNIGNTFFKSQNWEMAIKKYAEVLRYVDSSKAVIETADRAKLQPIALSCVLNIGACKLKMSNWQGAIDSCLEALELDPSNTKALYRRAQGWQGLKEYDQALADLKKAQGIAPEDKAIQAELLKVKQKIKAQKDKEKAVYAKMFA

Kd [1] | IC50 [2] | IC50 [3] | SMILES
48400 nM |  |  | COC(=O)c1c(NC(=O)CSc2nnc(-c3ccco3)c(-c3ccco3)n2)sc(C)c1C
 | 2000 nM | 1500 nM | Cc1sc(NC(=O)CCCC(=O)Nc2sc(C)c(C)c2C(N)=O)c(C(N)=O)c1C
